{"source": "patent US4450269A", "about": "“Mono-5-substituted-3-chloro-4H-1,2,6-thiadiazin-4-one antifungal agents” (FMC Corporation, priority 1980, dated 1984)", "experiment_in_all_cases": "Spore germination test", "format_in_all_cases": "cell-based", "key": {"[1]": {"tested_on": "Botrytis cinerea", "conditions": "BC, 48 hours", "how_it_was_run": "(§1)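 Compound was delivered in acetone into water agar at final 40, 10, 2.5 and 1 ppm. Alternaria solani and Botrytis cinerea spores were applied as sterile-water suspensions, while Erysiphe polygoni and Uromyces phaseoli spores were brushed on from infected leaves. After 48 h at 24° C., percentage germination was converted to a rating.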"}, "[2]": {"tested_on": "Erysiphe polygoni", "conditions": "EP, 48 hours", "how_it_was_run": "as §1"}, "[3]": {"tested_on": "Uromyces phaseoli", "conditions": "UP, 48 hours", "how_it_was_run": "as §1"}}, "data": [{"smiles": "N#CCc1ccc(Oc2nsnc(Cl)c2=O)cc1", "note": "[Compound 46, 3-chloro-5-[(4-cyanomethyl)-phenoxy]4H--1,2,6-thiadiazin-4-one]", "values": [{"measurement": "Spore Germination Rating", "setting": "[1]; 1.0 ppm", "value": "4 (80-100)"}, {"measurement": "Spore Germination Rating", "setting": "[1]; 2.5 ppm", "value": "3 (60-80)"}, {"measurement": "Spore Germination Rating", "setting": "[1]; 10 ppm", "value": "3 (60-80)"}, {"measurement": "Spore Germination Rating", "setting": "[1]; 40 ppm", "value": "0 (0-10)"}, {"measurement": "Spore Germination Rating", "setting": "[2]; 1.0 ppm", "value": "4 (80-100)"}, {"measurement": "Spore Germination Rating", "setting": "[2]; 2.5 ppm", "value": "4 (80-100)"}, {"measurement": "Spore Germination Rating", "setting": "[2]; 10 ppm", "value": "4 (80-100)"}, {"measurement": "Spore Germination Rating", "setting": "[2]; 40 ppm", "value": "4 (80-100)"}, {"measurement": "Spore Germination Rating", "setting": "[3]; 1.0 ppm", "value": "1 (10-40)"}, {"measurement": "Spore Germination Rating", "setting": "[3]; 2.5 ppm", "value": "0 (0-10)"}, {"measurement": "Spore Germination Rating", "setting": "[3]; 10 ppm", "value": "0 (0-10)"}, {"measurement": "Spore Germination Rating", "setting": "[3]; 40 ppm", "value": "0 (0-10)"}]}, {"smiles": "O=c1c(Cl)nsnc1Oc1cc(Cl)cc(Cl)c1", "note": "[Compound 20, 3-chloro-5-(3,5-dichlorophenoxy)-4H--1,2,6-thiadiazin-4-one]", "values": [{"measurement": "Spore Germination Rating", "setting": "[1]; 1.0 ppm", "value": "4 (80-100)"}, {"measurement": "Spore Germination Rating", "setting": "[1]; 2.5 ppm", "value": "0 (0-10)"}, {"measurement": "Spore Germination Rating", "setting": "[1]; 10 ppm", "value": "0 (0-10)"}, {"measurement": "Spore Germination Rating", "setting": "[1]; 40 ppm", "value": "0 (0-10)"}, {"measurement": "Spore Germination Rating", "setting": "[2]; 1.0 ppm", "value": "3 (60-80)"}, {"measurement": "Spore Germination Rating", "setting": "[2]; 2.5 ppm", "value": "0 (0-10)"}, {"measurement": "Spore Germination Rating", "setting": "[2]; 10 ppm", "value": "0 (0-10)"}, {"measurement": "Spore Germination Rating", "setting": "[2]; 40 ppm", "value": "0 (0-10)"}, {"measurement": "Spore Germination Rating", "setting": "[3]; 1.0 ppm", "value": "0 (0-10)"}, {"measurement": "Spore Germination Rating", "setting": "[3]; 2.5 ppm", "value": "0 (0-10)"}, {"measurement": "Spore Germination Rating", "setting": "[3]; 10 ppm", "value": "0 (0-10)"}, {"measurement": "Spore Germination Rating", "setting": "[3]; 40 ppm", "value": "0 (0-10)"}]}, {"smiles": "O=c1c(Cl)nsnc1Oc1cccc(C(F)(F)F)c1", "note": "[Compound 44, 3-chloro-5-[(3-trifluoromethyl)phenoxy]-4H--1,2,6-thiadiazin-4-one]", "values": [{"measurement": "Spore Germination Rating", "setting": "[1]; 1.0 ppm", "value": "4 (80-100)"}, {"measurement": "Spore Germination Rating", "setting": "[1]; 2.5 ppm", "value": "3 (60-80)"}, {"measurement": "Spore Germination Rating", "setting": "[1]; 10 ppm", "value": "0 (0-10)"}, {"measurement": "Spore Germination Rating", "setting": "[1]; 40 ppm", "value": "0 (0-10)"}, {"measurement": "Spore Germination Rating", "setting": "[2]; 1.0 ppm", "value": "3 (60-80)"}, {"measurement": "Spore Germination Rating", "setting": "[2]; 2.5 ppm", "value": "1 (10-40)"}, {"measurement": "Spore Germination Rating", "setting": "[2]; 10 ppm", "value": "0 (0-10)"}, {"measurement": "Spore Germination Rating", "setting": "[2]; 40 ppm", "value": "0 (0-10)"}, {"measurement": "Spore Germination Rating", "setting": "[3]; 1.0 ppm", "value": "1 (10-40)"}, {"measurement": "Spore Germination Rating", "setting": "[3]; 2.5 ppm", "value": "0 (0-10)"}, {"measurement": "Spore Germination Rating", "setting": "[3]; 10 ppm", "value": "0 (0-10)"}, {"measurement": "Spore Germination Rating", "setting": "[3]; 40 ppm", "value": "0 (0-10)"}]}]}
